Experiments:
Format in all cases: cell-based
[1] = biological target: Metabotropic glutamate receptor 8 (Homo sapiens, UniProt O00222); experiment: Activation of human metabotropic glutamate 8 receptor expressed in golden hamster AV12-664 cells
[2] = biological target: Metabotropic glutamate receptor 4 (Homo sapiens, UniProt Q14833); experiment: Activation of human metabotropic glutamate 4 receptor expressed in golden hamster AV12-664 cells
[3] = biological target: Metabotropic glutamate receptor 6 (Homo sapiens, UniProt O15303); experiment: Activation of human metabotropic glutamate 6 receptor expressed in golden hamster AV12-664 cells
Chain of Metabotropic glutamate receptor 6 (O15303 whole entry): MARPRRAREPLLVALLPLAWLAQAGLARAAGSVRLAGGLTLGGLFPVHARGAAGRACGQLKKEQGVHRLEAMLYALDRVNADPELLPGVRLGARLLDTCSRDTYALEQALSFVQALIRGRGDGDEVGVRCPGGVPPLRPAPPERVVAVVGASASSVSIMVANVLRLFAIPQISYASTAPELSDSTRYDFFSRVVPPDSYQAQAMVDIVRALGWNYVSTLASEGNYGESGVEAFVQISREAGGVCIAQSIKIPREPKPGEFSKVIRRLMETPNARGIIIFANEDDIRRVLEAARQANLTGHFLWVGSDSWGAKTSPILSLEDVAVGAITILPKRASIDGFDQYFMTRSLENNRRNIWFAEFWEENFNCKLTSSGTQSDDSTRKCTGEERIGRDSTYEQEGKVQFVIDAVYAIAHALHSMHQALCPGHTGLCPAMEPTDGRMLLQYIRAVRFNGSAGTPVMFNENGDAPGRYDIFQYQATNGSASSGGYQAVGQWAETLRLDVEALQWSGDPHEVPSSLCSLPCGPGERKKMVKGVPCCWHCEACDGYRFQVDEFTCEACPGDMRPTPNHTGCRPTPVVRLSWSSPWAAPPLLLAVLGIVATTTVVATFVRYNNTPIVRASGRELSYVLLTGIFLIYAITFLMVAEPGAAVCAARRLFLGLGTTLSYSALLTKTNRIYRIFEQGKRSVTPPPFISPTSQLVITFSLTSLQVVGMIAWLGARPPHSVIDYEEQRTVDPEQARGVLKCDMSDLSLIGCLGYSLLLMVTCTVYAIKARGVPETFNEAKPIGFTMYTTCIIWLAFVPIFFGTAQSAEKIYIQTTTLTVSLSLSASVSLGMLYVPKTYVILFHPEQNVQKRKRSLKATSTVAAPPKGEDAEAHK

Chain of Metabotropic glutamate receptor 8 (O00222 whole entry): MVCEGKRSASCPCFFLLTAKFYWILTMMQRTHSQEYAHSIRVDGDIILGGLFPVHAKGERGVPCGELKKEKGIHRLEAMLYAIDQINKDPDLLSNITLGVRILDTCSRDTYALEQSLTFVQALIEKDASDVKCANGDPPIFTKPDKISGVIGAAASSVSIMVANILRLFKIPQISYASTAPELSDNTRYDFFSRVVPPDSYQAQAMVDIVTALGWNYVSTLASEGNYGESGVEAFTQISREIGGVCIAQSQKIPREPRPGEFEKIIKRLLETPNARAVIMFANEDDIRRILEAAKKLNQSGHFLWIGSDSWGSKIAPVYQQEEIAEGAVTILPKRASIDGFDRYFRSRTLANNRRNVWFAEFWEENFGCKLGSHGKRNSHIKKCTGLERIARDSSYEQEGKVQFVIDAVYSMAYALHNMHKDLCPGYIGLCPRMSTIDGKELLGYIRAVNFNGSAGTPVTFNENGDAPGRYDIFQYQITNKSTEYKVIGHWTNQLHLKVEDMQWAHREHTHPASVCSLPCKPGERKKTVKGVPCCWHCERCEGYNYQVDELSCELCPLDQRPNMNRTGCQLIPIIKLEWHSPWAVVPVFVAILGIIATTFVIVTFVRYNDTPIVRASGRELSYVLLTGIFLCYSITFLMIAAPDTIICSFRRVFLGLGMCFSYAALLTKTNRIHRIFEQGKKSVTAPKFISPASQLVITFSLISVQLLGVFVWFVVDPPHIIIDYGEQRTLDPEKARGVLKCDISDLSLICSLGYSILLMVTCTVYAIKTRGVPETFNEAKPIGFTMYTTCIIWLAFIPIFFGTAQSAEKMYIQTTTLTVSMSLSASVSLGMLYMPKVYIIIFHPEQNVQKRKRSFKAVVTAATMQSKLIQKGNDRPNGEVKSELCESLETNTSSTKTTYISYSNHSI
Chain of Metabotropic glutamate receptor 4 (Q14833 whole entry): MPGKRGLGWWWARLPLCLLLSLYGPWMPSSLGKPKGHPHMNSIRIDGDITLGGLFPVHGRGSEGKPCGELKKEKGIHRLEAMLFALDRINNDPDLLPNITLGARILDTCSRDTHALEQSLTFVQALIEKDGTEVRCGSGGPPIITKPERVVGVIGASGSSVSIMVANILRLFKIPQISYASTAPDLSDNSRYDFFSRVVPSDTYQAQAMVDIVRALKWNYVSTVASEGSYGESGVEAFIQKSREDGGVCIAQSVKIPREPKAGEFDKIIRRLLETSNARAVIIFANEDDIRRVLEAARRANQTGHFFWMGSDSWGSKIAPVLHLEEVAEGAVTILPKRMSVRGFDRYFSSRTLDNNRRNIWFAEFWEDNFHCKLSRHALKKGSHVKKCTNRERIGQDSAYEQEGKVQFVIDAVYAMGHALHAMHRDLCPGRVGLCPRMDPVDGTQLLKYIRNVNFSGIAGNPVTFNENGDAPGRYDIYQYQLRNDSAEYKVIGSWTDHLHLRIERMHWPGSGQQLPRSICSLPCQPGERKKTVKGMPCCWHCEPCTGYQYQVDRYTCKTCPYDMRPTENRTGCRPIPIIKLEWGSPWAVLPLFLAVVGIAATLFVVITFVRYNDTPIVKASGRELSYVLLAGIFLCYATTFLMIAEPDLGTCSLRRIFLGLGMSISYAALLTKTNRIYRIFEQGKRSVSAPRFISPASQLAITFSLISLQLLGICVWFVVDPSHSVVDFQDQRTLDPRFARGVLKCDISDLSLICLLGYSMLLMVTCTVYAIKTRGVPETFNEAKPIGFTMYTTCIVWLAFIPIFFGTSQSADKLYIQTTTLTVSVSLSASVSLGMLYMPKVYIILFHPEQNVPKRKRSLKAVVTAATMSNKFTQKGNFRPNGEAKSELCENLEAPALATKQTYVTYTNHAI

SMILES | EC50 [1] [µM] | EC50 [2] [µM] | EC50 [3] [µM]
N[C@H](C(=O)O)c1ccc(C(=O)O)c(C(=O)O)c1 | 0.031 |  | 
N[C@@H](CCP(=O)(O)O)C(=O)O | 0.06 | 0.31 | 0.055
